Assay results: US20150368296A1, “Method for preventing or treating heart diseases by using a composition containing an isolated peptide” (Tunghai University, priority 2014, published 2015)

Assays:
Assay type in all cases: in vivo
FGF-2 = assay: Western blot of FGF-2 in heart tissue of high-fat diet mice; conditions: high-fat diet C57BL/6 mice, 5, 10 and 25 mg/kg/day intraperitoneally (groups 3 to 5) vs group 2 (high-fat diet, saline); relative to tubulin
Method: (§1) The male C57BL/6 mice at the age of 6 weeks were divided into 5 groups for 8 mice in each group. […]
(§2) Protein concentration of the extract was determined by Lowry's protein assay method. […]
(§3) The protein extraction of the mice heart tissues from the each group in example 2 were processed by the western blot method in example 3 to observe the expressions of the related proteins of cardiac fibrosis pathway including: FGF-2, ERK-1, UPA, MMP-2 and MMP-9. The results were shown at FIGS. 10 and 11, wherein the tubulin was used for an internal control in FIG. 10 and the expression levels of FGF-2, ERK-1, UPA, MMP-2 and MMP-9 in the mice heart tissues from the each group was calculated basing on the expression level of tubulin in each figures of FIG. 11.

ERK-5 = assay: Western blot of ERK-5 in heart tissue of high-fat diet mice; conditions: high-fat diet C57BL/6 mice, 5, 10 and 25 mg/kg/day intraperitoneally (groups 3 to 5) vs group 2 (high-fat diet, saline); relative to tubulin
Method: as §1, §2
(§4) The protein extraction of the mice heart tissues from the each group in example 2 were processed by the western blot method in example 3 to observe the expressions of the related signal transduction proteins of heart hypertrophy including: STAT-3, IL-6, MEK-5 and ERK-5. The results were shown at FIGS. 6 and 7, wherein the tubulin was used for an internal control in FIG. 6 and the expression levels of the related signal transduction proteins of heart hypertrophy in the mice heart tissues from each group was calculated basing on the expression level of tubulin in FIG. 7.

MMP-2 = assay: Western blot of MMP-2 in heart tissue of high-fat diet mice; conditions: high-fat diet C57BL/6 mice, 5, 10 and 25 mg/kg/day intraperitoneally (groups 3 to 5) vs group 2 (high-fat diet, saline); relative to tubulin
Method: as §1, §2, §3

IL-6 = assay: Western blot of IL-6 in heart tissue of high-fat diet mice; conditions: high-fat diet C57BL/6 mice, 5, 10 and 25 mg/kg/day intraperitoneally (groups 3 to 5) vs group 2 (high-fat diet, saline); relative to tubulin
Method: as §1, §2, §4

Bcl-2 protein = assay: Western blot of Bcl-2 in heart tissue of high-fat diet mice; conditions: high-fat diet C57BL/6 mice, 5, 10 and 25 mg/kg/day intraperitoneally (groups 3 to 5) vs group 2 (high-fat diet, saline); relative to tubulin
Method: as §1, §2
(§5) The protein extraction of the mice heart tissues from the each group in example 2 were processed by the western blot method in example 3 to observe the expressions of related apoptosis regulatory proteins in the mice heart tissues from the each group. The results were shown at FIGS. 2 and 3, wherein the tubulin was used for an internal control in FIG. 2 and the expression levels of related apoptosis regulatory proteins were calculated basing on the expression level of tubulin in each figure of FIG. 3.

STAT-3 = assay: Western blot of STAT-3 in heart tissue of high-fat diet mice; conditions: high-fat diet C57BL/6 mice, 5, 10 and 25 mg/kg/day intraperitoneally (groups 3 to 5) vs group 2 (high-fat diet, saline); relative to tubulin
Method: as §1, §2, §4

ERK-1 = assay: Western blot of ERK-1 in heart tissue of high-fat diet mice; conditions: high-fat diet C57BL/6 mice, 5, 10 and 25 mg/kg/day intraperitoneally (groups 3 to 5) vs group 2 (high-fat diet, saline); relative to tubulin
Method: as §1, §2, §3

myocardial cells = assay: H&E stained section of heart tissues of high-fat diet mice; conditions: 15 and 25 mg/kg/day intraperitoneally (groups 3 and 4) vs group 2 (high-fat diet, saline)
Method: (§6) The male C57BL/6 mice at the age of 6 weeks were divided into 5 groups for 8 mice in each group. The each group of mice were feed at 24±2° C. of temperature, humidity of 55±10% and 12/12 light cycle for 8 weeks, wherein the group 1 was control group on a normal diet (PMI Nutrition International, Brentwood, Mo., USA) and injected 0.9% saline intraperitoneally; the group 2 was fed high-fat diet to induce the mice into heart hypertrophy model and injected 0.9% saline intraperitoneally; the group 3 was fed high-fat diet and SEQ ID NO.:1 peptide was injected intraperitoneally with the dose of 5 mg/kg/day; the group 4 was fed high-fat diet and SEQ ID NO.:1 peptide was injected intraperitoneally with the dose of 10 mg/kg/day; the group 5 was fed high-fat diet and SEQ ID NO.:1 peptide was injected intraperitoneally with the dose of 25 mg/kg/day. The injection period of each group of mice was between the third week to the sixth week of feeding period. The high-fat diet contained 60% of energy as fat.
The feeding method was the same with example 1. Mice were divided into 4 groups for feeding at different conditions. The intraperitoneal injection was performed between the third week and the sixth week of the feeding period. […]

caspase-3 = assay: Western blot of activated caspase-3 in heart tissue of high-fat diet mice; conditions: high-fat diet C57BL/6 mice, 5, 10 and 25 mg/kg/day intraperitoneally (groups 3 to 5) vs group 2 (high-fat diet, saline); relative to tubulin
Method: as §1, §2, §5

JNK = assay: Western blot of JNK in heart tissue of high-fat diet mice; conditions: high-fat diet C57BL/6 mice, 5, 10 and 25 mg/kg/day intraperitoneally (groups 3 to 5) vs group 2 (high-fat diet, saline); relative to tubulin
Method: as §6, with “The injection period of each group of mice was between the third week to the sixth week of feeding period. The high-fat diet contained 60% of energy as fat.” left out
as §2
(§7) The protein extraction of the mice heart tissues from the each group in example 2 were processed by the western blot method in example 3 to observe the expressions of p38α protein and JNK. The results were shown at FIGS. 8 and 9, wherein the tubulin was used for an internal control in FIG. 8 and the expression levels of p38α protein and JNK were calculated basing on the expression level of tubulin in each figure of FIG. 9.

BNP = assay: Western blot of BNP in heart tissue of high-fat diet mice; conditions: high-fat diet C57BL/6 mice, 5, 10 and 25 mg/kg/day intraperitoneally (groups 3 to 5) vs group 2 (high-fat diet, saline); relative to tubulin
Method: as §1, §2
(§8) The protein extraction of the mice heart tissues from the each group in example 2 were processed by the western blot method in example 3 to observe the expressions of the indicator of heart hypertrophy and heart failure. The results were shown at FIGS. 12 and 13, wherein the tubulin was used for an internal control in FIG. 12 and the expression levels of the ANP and BNP in the mice heart tissues from the each group was calculated basing on the expression level of tubulin in each figures of FIG. 13.

[1] = tested on: nuclear factor of activated T-cells C3 (NFTA-C3); assay: Western blot of NFTA-C3 in heart tissue of high-fat diet mice; conditions: high-fat diet C57BL/6 mice, 5, 10 and 25 mg/kg/day intraperitoneally (groups 3 to 5) vs group 2 (high-fat diet, saline); relative to tubulin
Method: as §1, §2
(§9) The protein extraction of the mice heart tissues from the each group in example 2 were processed by the western blot method in example 3 to observe the expressions of nuclear factor of activated T-cells C3 (NFTA-C3) and calcineurin in the mice heart tissues from the each group. The results were shown at FIGS. 4 and 5, wherein the tubulin was used for an internal control in FIG. 4 and the expression levels of NFTA-C3 and calcineurin were calculated basing on the expression level of tubulin in each figure of FIG. 5.

cytochrome C = assay: Western blot of cytochrome C in heart tissue of high-fat diet mice; conditions: high-fat diet C57BL/6 mice, 5, 10 and 25 mg/kg/day intraperitoneally (groups 3 to 5) vs group 2 (high-fat diet, saline); relative to tubulin
Method: as §1, §2, §5

UPA = assay: Western blot of UPA in heart tissue of high-fat diet mice; conditions: high-fat diet C57BL/6 mice, 5, 10 and 25 mg/kg/day intraperitoneally (groups 3 to 5) vs group 2 (high-fat diet, saline); relative to tubulin
Method: as §1, §2, §3

calcineurin = assay: Western blot of calcineurin in heart tissue of high-fat diet mice; conditions: high-fat diet C57BL/6 mice, 5, 10 and 25 mg/kg/day intraperitoneally (groups 3 to 5) vs group 2 (high-fat diet, saline); relative to tubulin
Method: as §1, §2, §9

MEK-5 = assay: Western blot of MEK-5 in heart tissue of high-fat diet mice; conditions: high-fat diet C57BL/6 mice, 5, 10 and 25 mg/kg/day intraperitoneally (groups 3 to 5) vs group 2 (high-fat diet, saline); relative to tubulin
Method: as §1, §2, §4

MMP-9 = assay: Western blot of MMP-9 in heart tissue of high-fat diet mice; conditions: high-fat diet C57BL/6 mice, 5, 10 and 25 mg/kg/day intraperitoneally (groups 3 to 5) vs group 2 (high-fat diet, saline); relative to tubulin
Method: as §1, §2, §3

p38α protein = assay: Western blot of p38α protein in heart tissue of high-fat diet mice; conditions: high-fat diet C57BL/6 mice, 5, 10 and 25 mg/kg/day intraperitoneally (groups 3 to 5) vs group 2 (high-fat diet, saline); relative to tubulin
Method: as §6, with “The injection period of each group of mice was between the third week to the sixth week of feeding period. The high-fat diet contained 60% of energy as fat.” left out
as §2, §7

ANP = assay: Western blot of ANP in heart tissue of high-fat diet mice; conditions: high-fat diet C57BL/6 mice, 5, 10 and 25 mg/kg/day intraperitoneally (groups 3 to 5) vs group 2 (high-fat diet, saline); relative to tubulin
Method: as §1, §2, §8

SEQ ID NO.:1 peptide: isolated peptide which amino acid sequence is SEQ ID NO.: 1; extracted from organisms, separated by hydrolysis or chemical synthesis (VHVV)
expression level of FGF-2 (related protein of cardiac fibrosis pathway) in heart tissues (FGF-2): obviously lower
expression level of ERK-5 in the heart tissues (ERK-5): obviously lower
expression level of MMP-2 (related protein of cardiac fibrosis pathway) in heart tissues (MMP-2): obviously lower
expression level of IL-6 in the heart tissues (IL-6): obviously lower
expression level of Bcl-2 in the heart cell (Bcl-2 protein): obviously increased
expression level of STAT-3 in the heart tissues (STAT-3): obviously lower
expression level of ERK-1 (related protein of cardiac fibrosis pathway) in heart tissues (ERK-1): obviously lower
arrangement of myocardial cells in H&E stained heart sections (myocardial cells): more orderly and closely and has normal structure of heart muscles
expression level of activated caspase-3 in the heart cell (caspase-3): obviously decreased
expression level of JNK in the heart cells (JNK): significantly lower
expression level of BNP in the heart tissues (BNP): obviously decreased
expression level of NFTA-C3 in the heart cells [1]: obviously decreased
expression level of cytochrome C in the heart cell (cytochrome C): obviously decreased
expression level of UPA (related protein of cardiac fibrosis pathway) in heart tissues (UPA): obviously lower
expression level of calcineurin in the heart cells (calcineurin): obviously decreased
expression level of MEK-5 in the heart tissues (MEK-5): obviously lower
expression level of MMP-9 (related protein of cardiac fibrosis pathway) in heart tissues (MMP-9): obviously lower
expression level of p38α protein in the heart cells (p38α protein): significantly lower
expression level of ANP in the heart tissues (ANP): obviously decreased
